Data from patent US11873291B2, “Quinoline cGAS antagonist compounds” (ImmuneSensor Therapeutics, Inc., priority 2020, dated 2024).

Target: T1, recombinant human cGAS (aa147-522) (Homo sapiens, UniProt Q8N884)
T1 construct: recombinant human cGAS (aa147-522); His6-SUMO (cleaved yes); made in house; host or cells: E. coli BL21/pLys
Experiment: In vitro inhibition assay of cGAS activity (ATP consumption, KinaseGlo Max)
Type: biochemical
Conditions: Table 2, read-out: cGAS Inhibition Results IC50
Procedure: Expression and Purification of Recombinant cGAS Protein: cDNA encoding full-length or amino acids […] of human cGAS was inserted into a modified pET28a vector containing an in-frame His6-SUMO tag. The E. coli strain BL21/pLys harboring the plasmid was induced with 0.5 mM IPTG at 18° C. overnight. His6-SUMO tag was removed by a SUMO protease digestion following purification of the His6-SUMO-cGAS as described previously (Sun et al, 2013, Science 339, 786).
In vitro inhibition assay of cGAS activity: A 60 μL mixture containing 20 mM Tris-Cl, pH 7.5, 5 mM MgCl2, 0.2 mg/mL BSA, 0.01 mg/mL Herring testis DNA, 6.6 μM ATP, 0.1 mM GTP, 1.5 μg/mL of recombinant human cGAS (aa147-522) and serial dilutions of a test compound in DMSO was added to a 96-well plate and incubated at 37° C. for 20 minutes. At the end of reaction, 40 μL of KinaseGlo Max (Promega) was added and chemiluminescence was measured with a luminometer. Inhibitory effect of a compound is evaluated by plotting percentage of ATP consumption against logarithm of compound concentrations. IC50 value was calculated using GraphPad Prism 8 (GraphPad Software, Inc.).
The letter codes for cGAS IC50 include: A (<2 μM); B (2-30 μM); C (>30 μM).

T1 sequence (Q8N884 147-522): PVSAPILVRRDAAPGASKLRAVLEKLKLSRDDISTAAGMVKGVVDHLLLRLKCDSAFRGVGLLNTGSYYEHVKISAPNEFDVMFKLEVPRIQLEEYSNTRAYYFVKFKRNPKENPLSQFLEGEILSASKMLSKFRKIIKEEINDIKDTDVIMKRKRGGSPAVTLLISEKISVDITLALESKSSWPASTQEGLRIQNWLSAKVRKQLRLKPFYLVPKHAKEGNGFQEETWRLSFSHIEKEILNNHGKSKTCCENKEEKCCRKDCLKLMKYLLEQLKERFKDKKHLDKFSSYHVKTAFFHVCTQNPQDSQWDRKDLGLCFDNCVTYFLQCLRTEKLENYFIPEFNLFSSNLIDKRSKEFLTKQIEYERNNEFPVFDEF

SMILES	IC50
O=P(O)(O)OC1CCCN(c2cc(-n3ccnc3)c3ccc(Cl)c(Cl)c3n2)C1 (centres unmarked) [I-112, 1-(7,8-dichloro-4-(1H-imidazol-1-yl)quinolin-2-yl)piperidin-3-yl dihydrogen phosphate]	< 2000 nM
O=S(=O)(NC1CCCN(c2cc(-n3ccnc3)c3ccc(Cl)cc3n2)C1)c1cccnc1 (centres unmarked) [I-102]	2000 to 30000 nM
O=C(O)[C@@H]1C[C@@H](C2CCCCC2)CN1c1cc(-c2cn[nH]c2)c2ccc(Cl)c(Cl)c2n1 [I-439]	2000 to 30000 nM
O=C(O)CCN(CC(=O)O)c1cc(-n2ccnc2)c2ccc(Cl)c(Cl)c2n1 [I-175]	< 2000 nM
COc1ccc2c(-n3ccnc3)ccnc2c1 [I-417]	> 30000 nM
CCOC(=O)C1CCN(c2cc(-n3ccnc3)c3ccc(Cl)cc3n2)C1 (centres unmarked) [I-447]	> 30000 nM
C[C@@H](CC(=O)O)Nc1cc(-n2ccnc2)c2ccc(Cl)c(Cl)c2n1 [I-186]	< 2000 nM
Clc1ccc2c(-c3ccncc3)cc(-c3ccccc3)nc2c1 [I-70]	> 30000 nM
Cc1c(Cl)ccc2c(-n3ccnc3)ccnc12 [I-421, 7-chloro-4-(1H-imidazol-1-yl)-8-methylquinoline]	2000 to 30000 nM
O=P(O)(O)OCC1CCCN(c2cc(-n3ccnc3)c3ccc(Cl)c(Cl)c3n2)C1 (centres unmarked) [I-113, (1-(7,8-dichloro-4-(1H-imidazol-1-yl)quinolin-2-yl)piperidin-3-yl)methyl dihydrogen phosphate]	< 2000 nM
O=C1CN(c2cc(-c3cn[nH]c3)nc3c(Cl)c(Cl)ccc23)CCN1 [I-299]	> 30000 nM
O=C(O)CNC(=O)[C@@H]1CCCN1c1cc(-n2ccnc2)c2ccc(Cl)c(Cl)c2n1 [I-323]	< 2000 nM
OCC1CCCN(c2cc(-n3ccnc3)c3ccc(Cl)cc3n2)C1 (centres unmarked) [I-140]	2000 to 30000 nM
Clc1ccc2c(-n3ccnc3)cc(OCCCN3CCOCC3)nc2c1 [I-284]	> 30000 nM
CS(=O)(=O)NC1CCCN(c2cc(-n3ccnc3)c3ccc(Cl)cc3n2)C1 (centres unmarked) [I-105, N-(1-(7-chloro-4-(1H-imidazol-1-yl)quinolin-2-yl)piperidin-3-yl)methanesulfonamide]	2000 to 30000 nM
O=C(O)C1CN(c2cc(-n3ccnc3)c3ccc(Cl)c(Cl)c3n2)CCN1C(=O)CO (centres unmarked) [I-83, 4-(7,8-dichloro-4-(1H-imidazol-1-yl)quinolin-2-yl)-1-(2-hydroxyacetyl)piperazine-2-carboxylic acid]	2000 to 30000 nM
NS(=O)(=O)CCNc1cc(-c2cn[nH]c2)c2cc(C(F)(F)F)ccc2n1 [I-265]	> 30000 nM
O[C@H]1CCN(c2cc(-n3ccnc3)c3ccc(Cl)c(Cl)c3n2)C1 [I-144]	< 2000 nM
Clc1ccc2c(-c3cn[nH]c3)cc(N3CCOC(c4nnn[nH]4)C3)nc2c1Cl (centres unmarked) [I-370]	< 2000 nM
CN(CCNS(=O)(=O)c1cncn1C)c1cc(-n2ccnc2)c2ccc(Cl)cc2n1 [I-232]	2000 to 30000 nM
O=C(O)[C@@H]1C[C@@H](NS(=O)(=O)c2ccccc2)CN1c1cc(-n2ccnc2)c2ccc(Cl)c(Cl)c2n1 [I-349]	< 2000 nM

SMILES	IC50
CS(=O)(=O)CCC(Nc1cc(-n2ccnc2)c2ccc(Cl)c(Cl)c2n1)C(=O)O (centres unmarked) [I-170, 2-((7,8-Dichloro-4-(1H-imidazol-1-yl)quinolin-2-yl)amino)-4-(methylsulfonyl)butanoic acid]	< 2000 nM
COc1c(Cl)ccc2c(-c3cn[nH]c3)cc(NCCO)nc12 [I-403]	> 30000 nM
O=C(O)c1cc(-c2cc(-n3ccnc3)c3ccc(Cl)cc3n2)c[nH]1 [I-56, 4-(7-chloro-4-(1H-imidazol-1-yl)quinolin-2-yl)-1H-pyrrole-2-carboxylic acid]	2000 to 30000 nM
OB(O)C1CCCN(c2cc(-n3ccnc3)c3ccc(Cl)c(Cl)c3n2)C1 (centres unmarked) [I-120, (1-(7,8-Dichloro-4-(1H-imidazol-1-yl)quinolin-2-yl)piperidin-3-yl)boronic acid]	< 2000 nM
C[C@@]1(CO)CCCN1c1cc(-n2ccnc2)c2ccc(Cl)c(Cl)c2n1 [I-143]	< 2000 nM
Cn1cc(-c2cc(NCC(=O)O)c3ccc(Cl)c(Cl)c3n2)cn1 [I-425]	> 30000 nM
COC(=O)[C@@H]1C[C@@H](O)CN1c1cc(-c2cn[nH]c2)c2ccc(Cl)c(Cl)c2n1 [I-434]	2000 to 30000 nM
O=C(O)C[C@@H]1CCCN1c1cc(-c2cn[nH]c2)c2ccc(Cl)c(Cl)c2n1 [I-444]	< 2000 nM
O=C1NCCC1Nc1cc(-n2ccnc2)c2ccc(Cl)cc2n1 (centres unmarked) [I-367]	> 30000 nM
CS(=O)(=O)N[C@@H]1C[C@@H](C(=O)O)N(c2cc(-n3ccnc3)c3ccc(Cl)c(Cl)c3n2)C1 [I-351]	< 2000 nM
NS(=O)(=O)CCNc1cc(-c2cn[nH]c2)c2cc(Cl)c(Cl)cc2n1 [I-260]	< 2000 nM
NS(=O)(=O)CCNc1cc(-c2cn[nH]c2)nc2ccc(C(F)(F)F)cc12 [I-301]	> 30000 nM
CN(CCNS(=O)(=O)C1CC1)c1cc(-n2ccnc2)c2ccc(Cl)cc2n1 [I-226, N-(2-((7-chloro-4-(1H-imidazol-1-yl)quinolin-2-yl)(methyl)amino)ethyl)cyclopropanesulfonamide]	2000 to 30000 nM
O=C(O)CN(CCN1CCOCC1)c1cc(-n2ccnc2)c2ccc(Cl)c(Cl)c2n1 [I-172, N-(7,8-dichloro-4-(1H-imidazol-1-yl)quinoline-2-yl)-N-(2-morpholinoethyl)glycine]	2000 to 30000 nM
N#CCCO[PH](=O)OCC1CCCN(c2cc(-c3cn[nH]c3)c3ccc(Cl)c(Cl)c3n2)C1 (centres unmarked) [I-396]	< 2000 nM
O=C(CO)N1CCOC(CNc2cc(-c3cn[nH]c3)c3ccc(Cl)c(Cl)c3n2)C1 (centres unmarked) [I-222]	< 2000 nM
Clc1ccc2c(-n3ccnc3)cc(NCc3ccncc3)nc2c1 [I-353, 7-chloro-4-(1H-imidazol-1-yl)-N-(pyridin-4-ylmethyl)quinolin-2-amine]	> 30000 nM
O=C(O)[C@@H]1COCCN1c1cc(-c2cn[nH]c2)c2ccc(Cl)c(Cl)c2n1 [I-93]	< 2000 nM
O=C(O)CCS(=O)(=O)NC[C@@H]1CCCN1c1cc(-n2ccnc2)c2ccc(Cl)c(Cl)c2n1 [I-335]	< 2000 nM
CN(CCNS(=O)(=O)c1ccc(C(F)(F)F)cc1)c1cc(-n2ccnc2)c2ccc(Cl)cc2n1 [I-394]	> 30000 nM

Same assay, conditions: Table 3, read-out: cGAS Inhibition Results IC50

SMILES	IC50
O=C(O)CCCCCOC[C@@H]1CCCN1c1cc(-n2ccnc2)c2ccc(Cl)c(Cl)c2n1 [I-675, (S)-6-((1-(7,8-dichloro-4-(1H-imidazol-1-yl)quinolin-2-yl)pyrrolidin-2-yl)methoxy)hexanoic acid]	< 2000 nM
O=C(O)[C@@H]1CC(F)(F)CN1c1cc(-n2ccnc2)c2ccc(Cl)c(Cl)c2n1 [I-520]	< 2000 nM
O=C(O)[C@@H]1C[C@@H](N2CCOCC2)CN1c1cc(-n2ccnc2)c2ccc(Cl)c(Cl)c2n1 [I-518]	< 2000 nM
O=C(O)c1cccn1-c1cc(-n2ccnc2)c2ccc(Cl)c(Cl)c2n1 [I-506]	2000 to 30000 nM
O=C(NC[C@@H]1CCCN1c1cc(-n2ccnc2)c2ccc(Cl)c(Cl)c2n1)c1cc(O)no1 [I-641]	< 2000 nM
CO[C@@H]1CCN(c2cc(-n3ccnc3)c3ccc(Cl)c(Cl)c3n2)[C@@H]1C(=O)O [I-559]	< 2000 nM
O=C(O)C12CC1CCN2c1cc(-n2ccnc2)c2ccc(Cl)c(Cl)c2n1 (centres unmarked) [I-505]	2000 to 30000 nM
OC1CC2CCC(C1)N2c1cc(-n2ccnc2)c2ccc(Cl)c(Cl)c2n1 (centres unmarked) [I-489]	< 2000 nM
CN(CCNC(=O)C1CCCC1C(=O)O)c1cc(-n2ccnc2)c2ccc(Cl)c(Cl)c2n1 (centres unmarked) [I-622]	< 2000 nM
CC(C)N(CCCOc1ccncc1C(=O)O)c1cc(-n2ccnc2)c2ccc(Cl)c(Cl)c2n1 [I-851]	2000 to 30000 nM
O=C(O)C12CC(Nc3cc(-n4ccnc4)c4ccc(Cl)c(Cl)c4n3)(C1)C2 [I-513]	< 2000 nM
CON(C)C(=O)[C@@H]1CCCN1c1cc(-n2ccnc2)c2ccc(Cl)c(Cl)c2n1 [I-542]	2000 to 30000 nM
O=C(O)C1CCCCN1C(=O)[C@@H]1CCCN1c1cc(-n2ccnc2)c2ccc(Cl)c(Cl)c2n1 (some centres unmarked) [I-547]	2000 to 30000 nM
O=C(NO)[C@@H]1[C@@H](O)CCN1c1cc(-n2ccnc2)c2ccc(Cl)c(Cl)c2n1 [I-558]	< 2000 nM
FC(F)(F)[C@@H]1CCCN1c1cc(-n2ccnc2)c2ccc(Cl)c(Cl)c2n1 [I-496]	2000 to 30000 nM
O=C(O)[C@@H]1C[C@@H]2CCC[C@@H]2N1c1cc(-n2ccnc2)c2ccc(Cl)c(Cl)c2n1 [I-515]	< 2000 nM
O=C(O)C1CN(C(=O)C[C@@H]2CCCN2c2cc(-n3ccnc3)c3ccc(Cl)c(Cl)c3n2)CCO1 (some centres unmarked) [I-538]	< 2000 nM
COC(=O)[C@H]1[C@H](O)CCN1c1cc(-n2ccnc2)c2ccc(Cl)c(Cl)c2n1 [I-497]	2000 to 30000 nM
CN(CCS(=O)(=O)NCC(=O)O)c1cc(-n2ccnc2)c2ccc(Cl)c(Cl)c2n1 [I-633]	< 2000 nM
CCOc1c(Cl)ccc2c(-n3ccnc3)cc(N3CCC[C@H]3COCCC(=O)O)nc12 [I-861]	> 30000 nM
CC(C)(C)OC(=O)[C@@H]1CCCN1c1cc(-n2ccnc2)c2ccc(Cl)c(Cl)c2n1 [I-644]	2000 to 30000 nM
O=C(O)[C@@H]1C[C@H](OC(=O)N2CCOCC2)CN1c1cc(-n2ccnc2)c2ccc(Cl)c(Cl)c2n1 [I-571]	< 2000 nM
O=C(O)COC[C@H]1CCCN(c2cc(-c3cn[nH]c3)c3ccc(Cl)c(Cl)c3n2)C1 [I-746]	< 2000 nM
O=C(O)C1CCN(C(=O)C[C@@H]2CCCN2c2cc(-n3ccnc3)c3ccc(Cl)c(Cl)c3n2)C1 (some centres unmarked) [I-524]	< 2000 nM
